According to US9365851B2, “Spalt-like transcription factor 4 (SALL4) and uses thereof” (National University of Singapore, priority 2011, dated 2016):
Where two headings read alike, the source gives them in different places.

Assays:
[1] = test system: HDAC1 and HDAC2; assay: Anti-FITC pull-down of FITC-labeled peptides from SNU-398 nuclear extracts, Western blot for HDAC1/HDAC2; format: binding, human; details: anti-FITC IP
Method: For the pull down assay FITC-labeled version of the peptides and anti-FITC antibody (Santa Kruz, Calif.) was used. The antibody was immobilized covalently on the surface of Dinabeads (Invitrogen). The magnetic beads were than used in the pull down reaction according to the instruction of the manufacturer with the following minor modifications: 1 mM DTT, 0.1 mM NaF, 1 mM PMSF, 1 mM Na orthovanadate, and 1:100 final dilution of protease inhibitor, (Sigma Co.) was added to the extraction buffer. The NaCl concentration was optimized to 100 mM. Eluted proteins were submitted to Western blotting using standard procedure and the protein bands were visualized using antibodies to HDAC1 and 2 (Sigma)
Next tested was whether this wt 12-AA could compete with SALL4 in interacting with NuRD. A hepatocellular carcinoma cell line SNU-398 with abundant SALL4 expression was chosen for the following groups of experiences. Whether the wt 12-AA or its control (Mut and Scr) can bind to HDAC1 and HDAC2, the two NuRD components, was first evaluated. […] The histone deacetylase activity of the peptide pull-down complex was then measured using a Fluorescent Assay kit (Active Motif) (FIG. 1D). The active enzymatic activity of the HDACs tested by this assay corresponds to the amount of the HDAC proteins in the sample.
First evaluated was whether the wild type peptide or the mutant or scrambled controls could bind to HDAC1 and HDAC2, which comprise part of the NuRD complex 38. The hepatocellular carcinoma (HCC) cell line SNU-398 expresses abundant amount of SALL4 and was chosen for the following 9 experiments. […] To test this possibility, the histone deacetylase activity of the peptide pull-down complex was measured using a fluorescent assay kit (FIG. 8C). The active enzymatic activity of the HDACs tested by this assay corresponded to the amount of the HDAC proteins in the sample.

[2] = test system: SALL4A and SALL4B; assay: SALL4 knock-down in endometrial cancer cells (Western blot, qRT-PCR); format: cell-based, human; details: AN3CA and HEC-1A
Source text: In brief, the expression plasmids for human SALL4A and SALL4B were constructed using FUW-Luc-mCh-puro vector (FIG. 43A). SALL4A or SALL4B mutant preserving the same amino acid sequence, but containing triple-point mutations within the SALL4shRNA1 target nucleotide sequence, which renders the transgenes resistant to SALL4 shRNA targeting, were generated using QuikChange site-directed mutagenesis kit (Stratagene) and confirmed by sequencing. Short hairpin RNAs set for human SALL4 in pLKO.1-puro vector were purchased from Open Biosystems (RHS3979) and knockdown efficiency was further evaluated. Two of them, designated as SALL4shRNA1 and SALL4shRNA 2, were selected for subsequent experiments. The sequences for SALL4 shRNAs and Scramble shRNA are listed as following: SALL4shRNA1: […] (SEQ ID NO: 3); SALL4shRNA 2: CTATTTAGCCAAAGGCAAA (SEQ ID NO: 2); Scr-shRNA: […] (SEQ ID NO: 14)
To assess the biological functional role of SALL4 in endometrial cancer, first evaluated was SALL4 expression in a panel of six endometrial cancer cell lines using quantitative real-time PCR to select for appropriate models for our functional studies (FIG. 40). […]

[3] = test system: OV90; assay: Peptide treatment of ovarian cancer cells; format: cell-based
Method: Mut-peptide: mutant peptide; WT-peptide: wild-type peptide.
To understand the mechanism(s) of SALL4 function(s), SALL4-associated proteins were identified by tandem mass spectrometry. Components of the Mi-2/nucleosome remodeling and deacetylase (NuRD) complex were found in SALL4-immunocomplexes along with HDAC activity in ESCs with endogenous SALL4 expression and 293T cells overexpressing SALL4. The SALL4-mediated transcriptional regulation was tested on one potential target gene: Phosphatase and Tensin Homolog (Pten). Pten was confirmed as SALL4 downstream targets by chromatin-immunoprecipitation (ChIP), and its expression level, when tested by quantitative reverse transcription polymerase chain reaction (qRT-PCR), was decreased in 293T cells overexpressing SALL4. […] A small peptide that can block the oncogenic role of SALL4 in repressing Pten has been generated.

[4] = test system: PTEN/AKT pathway; assay: PTEN/AKT pathway expression in KBM5 cells (Western blot); format: cell-based
Source text: To further evaluate the specificity of the SALL4/PTEN pathway, next investigated was whether wild type peptide treatment could affect the expression of PTEN and its downstream target, phosphorylated AKT (pAKT).

Substance: Scr peptide: same 12 amino acids as the wt peptide, but in a scrambled sequence; negative control (SRMRQKIHPKIQ) [reference compound]
- HDAC1 and HDAC2 detected in peptide pull-down [1]: never
- HDAC1 and HDAC2 detected in peptide pull-down ([1]; listed as scrambled peptide): undetectable

Substance: CTATTTAGCCAAAGGCAAA (short hairpin RNA, chemistry and delivery not given here, further chemistry not given here) [E5 shRNA]
- down-regulation of SALL4A and SALL4B [2]: could down-regulate SALL4A and SALL4B efficiently

Substance: H-MSRRKQAKPQHI-OH [wt peptide, MSRRKQAKPQHI]
- living cells / cell death [3]: decreased living cells
- living cells / cell death ([3]; listed as small peptide): resulted in cell death
- HDAC1 and HDAC2 detected in peptide pull-down ([1]; listed as wild type peptide): easily detected
- HDAC1 and HDAC2 detected in peptide pull-down ([1]; listed as wt): detected
- levels of PTEN and pAKT [4]: little or no effect
